Assay results taken from US20240083873A1, “PYRIMIDINE CARBOXAMIDE COMPOUND AND APPLICATION THEREOF” (SHANGHAI MEIYUE BIOTECH DEVELOPMENT CO., LTD, priority 2020, published 2024).
Blank lines part the entries; values can stand above or below the molecule they belong to.

Key:
[1] = target: recombinant human Vanin-1 (Homo sapiens (Human), UniProt O95497); experiment: Vanin-1 recombinant enzyme activity inhibition assay; format: biochemical; conditions: Pantetheine 7-amino-4-trifluoromethylcoumarin substrate 45 μM, data at the 30th minute
Method: 1. Vanin-1 Recombinant Enzyme Activity Inhibition Assay
A certain mass of the compound was weighed precisely, and prepared with DMSO and reaction buffer (50 mM Tris base, 50 mM KCl, 1.6 mM cysteamine, 0.005% Brij 35, pH 8.0, prepared when using) to a maximum concentration of 10000 nM, then diluted in a 4-fold gradient, and prepared into 10 compound working solutions with different concentrations; • for the activity inhibition reaction of recombinant human Vanin-1 (Biorab, JN0618), 2.5 μL of compound working solution and 5 μL of recombinant human Vanin-1 protein were first mixed. […] Raw data at the 30th minute were collected for data processing and analysis, then the concentration-effect curve was fitted with GraphPad Prism 8 software, and the IC50 of the compound concentration was calculated.

[2] = In vivo pharmacokinetic evaluation in mice; conditions: C57BL6 mice; for Peak concentration Cmax: plasma
From the text: 2. In Vivo Pharmacokinetic Evaluation in Mice
To detect pharmacokinetic parameters of the compounds of the present disclosure in C57BL6 mice
The vehicle used in the experiment was: DMSO:Solutol:PBS=5%:25%:70% (v/v/v). Preparation method: The required compound was weighed accurately, added with a certain volume of DMSO in a certain proportion, vortex-mixed until completely dissolved, then added successively with Solutol and PBS according to the above proportion, and mixed well. The vehicles used in the intravenous (iv) administration group and oral (po) administration group were the same vehicles in the experiment. The intravenous dose was 1 mpk and the oral dose was 2 mpk. Experimental blood collection time points: IV group: 0.083, 0.25, 0.5, 1, 2, 4, 7, 24 h. PO group: 200 μL of whole blood was collected from jugular vein at each time point of 0.25, 0.5, 1, 2, 4, 7 and 24 h, anticoagulated with EDTA-K2, and immediately centrifuged at 4000 rpm for 5 minutes at 4° C. The supernatant was taken and the samples were frozen and stored in a refrigerator at −80° C. Processing of plasma samples: The sample was precipitated with ACN/MeOH (1:1, v/v) precipitant containing internal standard, then centrifuged at 14000 rpm for 5 minutes. The supernatant was taken into LC-MS/MS (AB Triple Quard 5500) for analysis to obtain plasma concentrations, and parameters were calculated by the non-compartmental model of Winnolin 8.1 version.

[3] = intragastric administration group po, 2 mpk
[4] = intravenous injection group iv, 1 mpk

Sequence of recombinant human Vanin-1 (O95497 22-513): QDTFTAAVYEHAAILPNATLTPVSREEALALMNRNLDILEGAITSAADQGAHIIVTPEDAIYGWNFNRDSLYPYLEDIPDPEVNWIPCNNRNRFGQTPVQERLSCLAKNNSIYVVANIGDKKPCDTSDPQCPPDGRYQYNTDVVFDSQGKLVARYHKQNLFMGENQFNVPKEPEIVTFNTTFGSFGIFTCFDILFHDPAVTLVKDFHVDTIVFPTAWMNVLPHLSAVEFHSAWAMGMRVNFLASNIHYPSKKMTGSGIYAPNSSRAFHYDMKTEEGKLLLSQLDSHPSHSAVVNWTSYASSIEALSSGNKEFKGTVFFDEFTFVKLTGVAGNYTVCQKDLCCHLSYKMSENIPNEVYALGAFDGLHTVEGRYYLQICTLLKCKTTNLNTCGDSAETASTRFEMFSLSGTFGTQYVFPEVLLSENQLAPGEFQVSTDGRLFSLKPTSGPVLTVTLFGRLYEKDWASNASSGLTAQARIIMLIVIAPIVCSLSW

Compound: CCC1(CC)CCN(C(=O)c2cnc(N[C@@H]3CCc4ncccc43)nc2)C1 [Compound 13]
IC50 [1]: 4.2 nM

Compound: Cc1ccc2c(n1)CCC2Nc1ncc(C(=O)N2CCC3(CCOCC3)C2)cn1 (centres unmarked) [Compound 19]
IC50 [1]: 2.9 nM
Area under the curve AUC0-7h [2, 3]: 1459.29 ng·h/mL
Clearance rate CL [2, 3]: 21.9452 mL/min/kg
Distributed solvent Vd [2, 3]: 2.91 L/kg
Half-life T1/2 [2, 3]: 1.52 h
Peak concentration Cmax [2, 3]: 766.60 ng/mL

Compound: Cc1cnc2c(c1)C(Nc1ncc(C(=O)N3CCC4(CCOCC4)C3)cn1)CC2 (centres unmarked) [Compound 21]
IC50 [1]: 6.9 nM

Compound: O=C(c1cnc(NC2CCc3ncccc32)nc1)N1CCC2(CCOCC2)C1 (centres unmarked) [Compound 2]
IC50 [1]: 8.9 nM

These reach a lower IC50 [1]. Values come first.

IC50 [1]: 2 nM
Compound: CCC(=O)N(C)C1CCN(C(=O)c2cnc(N[C@@H]3CCc4ncccc43)nc2)C1 (some centres unmarked) [Compound 26]

IC50 [1]: 1.7 nM
Compound: O=C(c1cnc(NC2CCc3ncc(Br)cc32)nc1)N1CCC2(CCOCC2)C1 (centres unmarked) [Compound 23]

IC50 [1]: 0.6 nM
Area under the curve AUC0-7h [2, 3]: 684.31 ng·h/mL
Clearance rate CL [2, 3]: 48.6622 mL/min/kg
Distributed solvent Vd [2, 3]: 4.55 L/kg
Half-life T1/2 [2, 3]: 1.05 h
Peak concentration Cmax [2, 3]: 539.37 ng/mL
Area under the curve AUC0-7h [2, 4]: 557.60 ng·h/mL
Clearance rate CL [2, 4]: 33.857 mL/min/kg
Distributed solvent Vd [2, 4]: 2.60 L/kg
Half-life T1/2 [2, 4]: 0.93 h
Peak concentration Cmax [2, 4]: 742.33 ng/mL
Bioavailability F % ([2]; po 2 mpk vs iv 1 mpk): 61.4%
Compound: CC(=O)N(C)C1CCN(C(=O)c2cnc(N[C@@H]3CCc4ncccc43)nc2)C1 (some centres unmarked) [Compound 17]
